Row | SMILES | melting point
1 | O=c1oc2ccccc2c(O)c1C(Sc1ccc(Cl)cc1)c1cc(F)ccc1F (centres unmarked) | 146 to 147 °C
2 | Cl.O=C(OCCC(c1cc(F)ccc1F)S(=O)(=O)c1ccc(Cl)cc1)N1CCN(Cc2ccccc2)CC1 (centres unmarked) | 184 to 189 °C
3 | Cl.NCCCC(c1cc(F)ccc1F)S(=O)(=O)c1ccc(Cl)cc1 (centres unmarked) | 232 to 233 °C
4 | Cl.O=C(NCCCC(c1cc(F)ccc1F)S(=O)(=O)c1ccc(Cl)cc1)c1cccnc1 (centres unmarked) | 154 to 157 °C
5 | Cl.O=S(=O)(c1ccc(Cl)cc1)C(CCCCN1CCCC1)c1cc(F)ccc1F (centres unmarked) | 167 to 170.5 °C
6 | Cl.O=S(=O)(c1ccc(Cl)cc1)C(CCNCCO)c1cc(F)ccc1F (centres unmarked) | 216 to 220 °C
7 | Cl.O=S(=O)(c1ccc(Cl)cc1)C1(c2cc(F)ccc2F)CCNCC1 | 239 to 246 °C (dec.)
8 | Cl.O=S(=O)(c1ccc(Cl)cc1)C(c1cc(F)ccc1F)C1CCNCC1 (centres unmarked) | 184 to 190 °C
9 | O=S(=O)(/C(=C/c1ccccc1)c1cc(F)ccc1F)c1ccc(Cl)cc1 [Example 6, E-2-[1-[(4-Chlorophenyl)sulfonyl]-2-phenylethenyl]-1,4-difluorobenzene] | 144.5 to 145 °C
10 | CCCC(=O)C(c1cc(F)ccc1F)S(=O)(=O)c1ccc(Cl)cc1 (centres unmarked) [Example 7, 1-[(4-Chlorophenyl)sulfonyl]-1-(2,5-difluorophenyl)-2-pentanone] | 85.5 to 86 °C
11 | O=C(c1ccccc1)C(c1cc(F)ccc1F)S(=O)(=O)c1ccc(Cl)cc1 (centres unmarked) [Example 8, 2-[(4-Chlorophenyl)sulfonyl]-2-(2,5-difluorophenyl)-1-phenyl-1-ethanone] | 179.5 to 180 °C
12 | O=C(OC(=C(c1cc(F)ccc1F)S(=O)(=O)c1ccc(Cl)cc1)c1ccccc1)c1ccccc1 [Example 9, 2-[(4-Chlorophenyl)sulfonyl]-2-(2,5-difluorophenyl)-1-phenylethenyl benzoate] | 224.5 to 227 °C
13 | CCCC(O)C(c1cc(F)ccc1F)S(=O)(=O)c1ccc(Cl)cc1 (centres unmarked) [Example 11, 1-[(4-Chlorophenyl)sulfonyl]-1-(2,5-difluorophenyl)-2-pentanol] | 76.5 to 78 °C
14 | O=S(=O)(c1ccc(Cl)cc1)C(CCCCO)(CCCCO)c1cc(F)ccc1F [Example 19, 5-[(4-Chlorophenyl)sulfonyl]-5-(2,5-difluorophenyl)-1,9-nonanediol] | 107 to 108.5 °C
15 | CCOC(=O)CC(c1cc(F)ccc1F)S(=O)(=O)c1ccc(Cl)cc1 (centres unmarked) [Example 25, Ethyl 3-[(4-chlorophenyl)sulfonyl]-3-(2,5-difluorophenyl)propionate] | 99.5 to 100.5 °C
16 | CSCCCCC(c1cc(F)ccc1F)S(=O)(=O)c1ccc(Cl)cc1 (centres unmarked) [Example 26, 2-[1-[(4-Chlorophenyl)sulfonyl]-5-(methylthio)pentyl]-1,4-difluorobenzene] | 103 to 106 °C
17 | C=COCCCCC(c1cc(F)ccc1F)S(=O)(=O)c1ccc(Cl)cc1 (centres unmarked) [Example 28, 2-[1-[(4-Chlorophenyl)sulfonyl]-5-vinyloxypentyl]-1,4-difluorobenzene] | 54 to 56 °C
18 | O=S(=O)(c1ccc(Cl)cc1)C1(c2cc(F)ccc2F)CCCC1 [Example 30, 2-[1-[(4-Chlorophenyl)sulfonyl]cyclopentyl]-1,4-difluorobenzene] | 153 to 155 °C
19 | C=COCCOCCC(c1cc(F)ccc1F)S(=O)(=O)c1ccc(Cl)cc1 (centres unmarked) [Example 34, 2-[1-[(4-Chlorophenyl)sulfonyl]-3-(2-vinyloxyethoxy)propyl]-1,4-difluorobenzene] | 55 to 56 °C
20 | O=S(=O)(c1ccc(Cl)cc1)C(CCCCCBr)c1cc(F)ccc1F (centres unmarked) [Example 37, 2-[6-Bromo-1-[(4-chlorophenyl)sulfonyl]hexyl]-1,4-difluorobenzene] | 77 to 79 °C
21 | CC(CCCO)C(c1cc(F)ccc1F)S(=O)(=O)c1ccc(Cl)cc1 (centres unmarked) [Example 39, 5-[(4-Chlorophenyl)sulfonyl]-5-(2,5-difluorophenyl)-4-methyl-1-pentanol] | 84 to 86 °C
22 | CC(CCCO)C(c1cc(F)ccc1F)S(=O)(=O)c1ccc(Cl)cc1 (centres unmarked) [Example 40, 5-[(4-Chlorophenyl)sulfonyl]-5-(2,5-difluorophenyl)-4-methyl-1-pentanol] | 67 to 69 °C
23 | O=S(=O)(Cc1ccccc1)c1ccc(Cl)cc1 [Example 50, 1-Chloro-4-(benzylsulfonyl)benzene] | 147.5 to 148.5 °C
24 | CS(=O)(=O)CCCCC(c1ccccc1)S(=O)(=O)c1ccc(Cl)cc1 (centres unmarked) [Example 51, 1-Chloro-4-(5-methylsulfonyl-1-phenylpentyl)sulfonylbenzene] | 151 to 152 °C
25 | C[S+]([O-])CCCCC(c1ccccc1)S(=O)(=O)c1ccc(Cl)cc1 (centres unmarked) [Example 52, 1-Chloro-4-(5-methylsulfinyl-1-phenylpentyl)sulfonylbenzene] | 98.5 to 99.5 °C
26 | CS(=O)(=O)CCCCC(c1ccccc1F)S(=O)(=O)c1ccc(Cl)cc1 (centres unmarked) [Example 53, 1-[1-[(4-Chlorophenyl)sulfonyl]-5-(methylsulfonyl)pentyl]-2-fluorobenzene] | 167 to 168 °C
27 | CS(=O)(=O)CCCCC(c1cccc(F)c1)S(=O)(=O)c1ccc(Cl)cc1 (centres unmarked) [Example 54, 1-[1-[(4-Chlorophenyl)sulfonyl]-5-(methylsulfonyl)pentyl]-3-fluorobenzene] | 116 to 117 °C

Results, then the molecule that gave them:

Row | melting point | SMILES
28 | 147 to 148 °C | O=S(=O)(c1ccc(Cl)cc1)C(c1cc(F)ccc1F)c1cc(Cl)ncc1Cl (centres unmarked) (hydrate or solvate) [Example 345, 2,5-Dichloro-4-[(4-chlorophenylsulfonyl)-(2,5-difluorophenyl)methyl]pyridine 0.5 hydrate]
29 | 111 to 112 °C | CC(CCO)C(c1cc(F)ccc1F)S(=O)(=O)c1ccc(Cl)cc1 (single isomer, unassigned) [Example 238, 4-(4-Chlorophenylsulfonyl)-4-(2,5-difluorophenyl)-3-methyl-1-butanol]
30 | 65 to 67 °C | CC(CCO)C(c1cc(F)ccc1F)S(=O)(=O)c1ccc(Cl)cc1 (single isomer, unassigned) [Example 239, 4-(4-Chlorophenylsulfonyl)-4-(2,5-difluorophenyl)-3-methyl-1-butanol]
31 | 141 to 142.5 °C | CS(=O)(=O)CCCCC(c1ccc(F)cc1)S(=O)(=O)c1ccc(Cl)cc1 (centres unmarked) [Example 55, 1-[1-[(4-Chlorophenyl)sulfonyl]-5-(methylsulfonyl)pentyl]-4-fluorobenzene]
32 | 128 to 129 °C | CSC(c1cc(F)ccc1F)S(=O)(=O)c1ccc(Cl)cc1 (centres unmarked) [Example 56, 2-[1-[(4-Chlorophenyl)sulfonyl]-1-methylthio]methyl-1,4-difluorobenzene]
33 | 84 to 85 °C | O=S(=O)(c1ccc(Cl)cc1)C(Sc1ccccc1)c1cc(F)ccc1F (centres unmarked) [Example 57, 2-[1-[(4-Chlorophenyl)sulfonyl]-1-phenylthio]methyl-1,4-difluorobenzene]
34 | 127 to 128 °C | O=C(CC(c1cc(F)ccc1F)S(=O)(=O)c1ccc(Cl)cc1)OCc1ccccc1 (centres unmarked) [Example 59, Benzyl 3-(4-chlorophenylsulfonyl)-3-(2,5-difluorophenyl)propionate]
35 | 140.5 to 142 °C | CC(C)(C)OC(=O)CC(c1cc(F)ccc1F)S(=O)(=O)c1ccc(Cl)cc1 (centres unmarked) [Example 61, t-Butyl 3-[(4-chlorophenyl)sulfonyl]-3-(2,5-difluorophenyl)propionate]
36 | 152 to 153 °C | O=C(O)CC(c1cc(F)ccc1F)S(=O)(=O)c1ccc(Cl)cc1 (centres unmarked) [Example 62, 3-[(4-Chlorophenyl)sulfonyl]-3-(2,5-difluorophenyl)propionic Acid]
37 | 146 to 147 °C | CS(=O)(=O)CCCCC(c1ccc2ccccc2c1)S(=O)(=O)c1ccc(Cl)cc1 (centres unmarked) [Example 67, 2-[1-[(4-Chlorophenyl)sulfonyl]-5-(methylsulfonyl)pentyl]naphthalene]
38 | 124 to 125 °C | CS(=O)(=O)CCCCC(c1ccc(F)cc1Cl)S(=O)(=O)c1ccc(Cl)cc1 (centres unmarked) [Example 68, 2-Chloro-1-[1-[(4-chlorophenyl)sulfonyl]-5-(methylsulfonyl)pentyl]-4-fluorobenzene]
39 | 143 to 144 °C | CS(=O)(=O)CCCCC(c1ccc(Cl)c(Cl)c1)S(=O)(=O)c1ccc(Cl)cc1 (centres unmarked) [Example 69, 1,2-Dichloro-4-[1-[(4-chlorophenyl)sulfonyl]-5-(methylsulfonyl)pentyl]benzene]
40 | 140 to 141 °C | CS(=O)(=O)CCCCC(c1ccccn1)S(=O)(=O)c1ccc(Cl)cc1 (centres unmarked) [Example 70, 2-[1-[(4-Chlorophenyl)sulfonyl]-5-(methylsulfonyl)pentyl]pyridine]
41 | 126 to 127 °C | CS(=O)(=O)CCCCC(c1cc(F)cc(F)c1)S(=O)(=O)c1ccc(Cl)cc1 (centres unmarked) [Example 72, 1-[1-[(4-Chlorophenyl)sulfonyl]-5-(methylsulfonyl)pentyl]-3,5-difluorobenzene]
42 | 181 to 182 °C | CS(=O)(=O)CCCCC(c1ccncc1)S(=O)(=O)c1ccc(Cl)cc1 (centres unmarked) [Example 74, 4-[1-[(4-Chlorophenyl)sulfonyl]-5-(methylsulfonyl)pentyl]pyridine]
43 | 122 to 124 °C | CS(=O)(=O)CCCCC(c1ccc(F)c(F)c1)S(=O)(=O)c1ccc(Cl)cc1 (centres unmarked) [Example 76, 4-[1-(4-Chlorophenylsulfonyl)-5-(methylsulfonyl)pentyl]-1,2-difluorobenzene]
44 | 141 to 143 °C | CS(=O)(=O)CCCCC(c1cccc(F)c1F)S(=O)(=O)c1ccc(Cl)cc1 (centres unmarked) [Example 77, 1-[1-(4-Chlorophenylsulfonyl)-5-(methylsulfonyl)pentyl]-2,3-difluorobenzene]
45 | 131 to 132 °C | CS(=O)(=O)CCCCC(c1cccc(Cl)c1F)S(=O)(=O)c1ccc(Cl)cc1 (centres unmarked) [Example 78, 1-Chloro-3-[1-(4-chlorophenylsulfonyl)-5-(methylsulfonyl)pentyl]-2-fluorobenzene]
46 | 116 to 117 °C | CS(=O)(=O)CCCCC(c1cc(Cl)ccc1F)S(=O)(=O)c1ccc(Cl)cc1 (centres unmarked) [Example 79, 4-Chloro-2-[1-(4-chlorophenylsulfonyl)-5-(methylsulfonyl)pentyl]-1-fluorobenzene]
47 | 118 to 119 °C | CS(=O)(=O)CCCCC(c1c(F)cccc1F)S(=O)(=O)c1ccc(Cl)cc1 (centres unmarked) [Example 81, 2-[1-(4-Chlorophenylsulfonyl)-5-(methylsulfonyl)pentyl]-1,3-difluorobenzene]
